For one experiment, the target named is T1, EGFR (d746-750) (Homo sapiens, UniProt P00533, DEL746-750).
T1 construct: purchased SignalChem E10-122JG
The experiment can be described thus: Biochemical EGFR inhibition assay (Caliper mobility shift), EGFR (d746-750). The conditions noted are these: biochemical Caliper mobility shift assay, EGFR Exon 19-del enzyme; read-out: Enz EGFR Exon 19-del IC50. Summed up: (§1)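 Kinase activity measured as phosphorylation of 2.5 µM 5-FAM-labelled peptide substrate in 100 mM HEPES pH 7.5, 10 mM MgCl2, 0.015% Brij-35, 1 mM DTT, 1.0% DMSO, at 1.0 mM ATP or ATP Km. Run at 25 °C to 10–20% conversion, stopped with EDTA; product resolved by mobility shift, apparent IC50 from percent activity vs log concentration.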

For the next experiment, the target named is T2, EGFR L858R (Homo sapiens, UniProt P00533, L858R).
T2 construct: purchased SignalChem E10-122BG
The experiment can be described thus: Biochemical EGFR inhibition assay (Caliper mobility shift), EGFR L858R. The conditions noted are these: biochemical Caliper mobility shift assay, EGFR L858R enzyme; read-out: Enz EGFR L858R IC50. Summed up:
as §1

Experiment [1] addresses intracellular phosphorylation of EGFR (Tyr1068) in PC-9 cells (Homo sapiens, UniProt P00533, DEL746-750). The experiment can be described thus: PC-9 pEGFR AlphaLISA assay. The format is cell-based. The conditions noted are these: 4 hours incubation, read-out: Phos EGFR PC9 IC50. Summed up:
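PC-9 cells (EGFR del746-750) in phenol-free DMEM/10% FBS, adhered overnight, then exposed to 10-point 4-fold compound dilutions for 4 h at 37 °C. Lysates assayed for pEGFR Tyr1068 by AlphaLISA SureFire Ultra; IC50 from percent pEGFR inhibition vs log concentration.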
In general terms: Bead proximity is the source of the signal in Alpha formats.

These results are taken from patent US20260207602A1, “EGFR INHIBITORS” (Blueprint Medicines Corporation, priority 2022, published 2026).

Sequence of intracellular phosphorylation of EGFR (Tyr1068) in PC-9 cells (P00533 with tags, fused parts or gaps DEL746-750): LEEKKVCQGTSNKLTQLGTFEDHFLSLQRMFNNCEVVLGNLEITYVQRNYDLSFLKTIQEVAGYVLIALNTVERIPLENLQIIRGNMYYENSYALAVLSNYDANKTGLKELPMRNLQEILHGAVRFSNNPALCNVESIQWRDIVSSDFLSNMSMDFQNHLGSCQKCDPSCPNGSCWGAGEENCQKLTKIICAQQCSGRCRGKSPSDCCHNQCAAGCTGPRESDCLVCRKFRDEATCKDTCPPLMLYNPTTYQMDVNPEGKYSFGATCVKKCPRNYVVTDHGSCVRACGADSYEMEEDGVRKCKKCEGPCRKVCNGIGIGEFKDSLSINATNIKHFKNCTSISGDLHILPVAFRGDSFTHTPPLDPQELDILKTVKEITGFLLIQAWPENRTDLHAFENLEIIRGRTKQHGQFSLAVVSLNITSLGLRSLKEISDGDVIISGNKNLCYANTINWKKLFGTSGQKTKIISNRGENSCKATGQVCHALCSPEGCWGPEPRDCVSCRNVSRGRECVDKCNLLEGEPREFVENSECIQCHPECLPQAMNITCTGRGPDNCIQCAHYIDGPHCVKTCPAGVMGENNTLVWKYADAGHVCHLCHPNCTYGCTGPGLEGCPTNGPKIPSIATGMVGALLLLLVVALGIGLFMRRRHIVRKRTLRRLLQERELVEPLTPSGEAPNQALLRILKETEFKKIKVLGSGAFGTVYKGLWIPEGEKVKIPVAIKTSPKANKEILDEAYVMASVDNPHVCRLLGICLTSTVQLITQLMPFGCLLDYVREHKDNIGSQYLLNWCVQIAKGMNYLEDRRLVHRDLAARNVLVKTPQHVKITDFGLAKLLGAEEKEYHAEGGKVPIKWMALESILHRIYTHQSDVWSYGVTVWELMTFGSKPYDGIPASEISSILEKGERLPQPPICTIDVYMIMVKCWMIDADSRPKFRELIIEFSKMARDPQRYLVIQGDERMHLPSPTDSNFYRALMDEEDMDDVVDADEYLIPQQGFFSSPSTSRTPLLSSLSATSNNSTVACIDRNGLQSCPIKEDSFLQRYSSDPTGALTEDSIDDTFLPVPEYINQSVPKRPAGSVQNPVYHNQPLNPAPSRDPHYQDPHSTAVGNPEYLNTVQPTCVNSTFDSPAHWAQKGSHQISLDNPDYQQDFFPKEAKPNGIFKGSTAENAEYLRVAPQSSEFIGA
T1 sequence (P00533 with tags, fused parts or gaps DEL746-750 limits assumed): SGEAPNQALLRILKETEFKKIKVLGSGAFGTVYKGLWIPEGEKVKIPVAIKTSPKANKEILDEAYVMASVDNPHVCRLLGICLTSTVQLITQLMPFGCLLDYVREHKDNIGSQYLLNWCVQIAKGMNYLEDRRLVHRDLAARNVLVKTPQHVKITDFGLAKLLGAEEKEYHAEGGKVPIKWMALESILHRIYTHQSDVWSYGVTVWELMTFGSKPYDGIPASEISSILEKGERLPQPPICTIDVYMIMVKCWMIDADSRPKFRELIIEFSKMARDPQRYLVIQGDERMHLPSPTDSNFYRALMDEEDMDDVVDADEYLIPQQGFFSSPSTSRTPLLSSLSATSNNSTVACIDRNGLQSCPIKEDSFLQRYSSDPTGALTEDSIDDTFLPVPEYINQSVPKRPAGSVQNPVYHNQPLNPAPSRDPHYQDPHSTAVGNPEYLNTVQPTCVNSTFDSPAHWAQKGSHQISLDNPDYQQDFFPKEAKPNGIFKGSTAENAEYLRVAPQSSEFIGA
T2 sequence (P00533 25-1210 L858R): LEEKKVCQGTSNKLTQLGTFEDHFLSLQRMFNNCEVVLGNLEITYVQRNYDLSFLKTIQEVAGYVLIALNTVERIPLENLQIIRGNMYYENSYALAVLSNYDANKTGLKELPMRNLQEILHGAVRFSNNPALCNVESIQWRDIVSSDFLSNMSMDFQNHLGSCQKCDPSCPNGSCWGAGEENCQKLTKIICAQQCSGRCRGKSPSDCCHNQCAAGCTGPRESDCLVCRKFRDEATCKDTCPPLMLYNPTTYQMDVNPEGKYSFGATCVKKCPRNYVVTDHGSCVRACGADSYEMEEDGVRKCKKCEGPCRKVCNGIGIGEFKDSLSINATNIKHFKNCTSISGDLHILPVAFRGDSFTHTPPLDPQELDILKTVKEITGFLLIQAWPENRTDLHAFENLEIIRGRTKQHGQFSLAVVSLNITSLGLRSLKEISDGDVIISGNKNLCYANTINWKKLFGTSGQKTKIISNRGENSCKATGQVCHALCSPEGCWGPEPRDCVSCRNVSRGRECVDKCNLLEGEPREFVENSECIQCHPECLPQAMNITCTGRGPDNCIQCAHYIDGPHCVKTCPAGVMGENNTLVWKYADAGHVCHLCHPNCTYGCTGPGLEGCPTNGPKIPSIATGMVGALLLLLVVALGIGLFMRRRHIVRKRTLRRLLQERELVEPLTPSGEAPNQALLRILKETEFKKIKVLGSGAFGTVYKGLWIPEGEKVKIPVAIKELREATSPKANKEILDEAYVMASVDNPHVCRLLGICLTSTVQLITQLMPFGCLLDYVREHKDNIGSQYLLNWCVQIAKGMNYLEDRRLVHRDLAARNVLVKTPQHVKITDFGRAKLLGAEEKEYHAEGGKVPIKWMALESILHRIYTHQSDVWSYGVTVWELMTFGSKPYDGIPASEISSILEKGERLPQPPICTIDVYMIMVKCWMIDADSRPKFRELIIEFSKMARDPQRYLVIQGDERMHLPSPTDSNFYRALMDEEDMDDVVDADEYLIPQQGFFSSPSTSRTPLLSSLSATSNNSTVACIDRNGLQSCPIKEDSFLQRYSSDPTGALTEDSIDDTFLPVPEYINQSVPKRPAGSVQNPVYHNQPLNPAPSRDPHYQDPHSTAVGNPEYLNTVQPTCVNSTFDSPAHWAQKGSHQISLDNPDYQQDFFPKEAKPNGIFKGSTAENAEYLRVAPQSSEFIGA

For `C[C@@H](CN(C)C)Oc1cc(-c2cnn(C)c2)cc2ncnc(Nc3ccc4ncsc4c3)c12` (single isomer, unassigned) [Example 160, (R)—N-(5-((1-(dimethylamino)propan-2-yl)oxy)-7-(1-methyl-1H-pyrazol-4-yl)quinazolin-4-yl)benzo[d]thiazol-6-amine or (S)—N-(5-((1-(dimethylamino)propan-2-yl)oxy)-7-(1-methyl-1H-pyrazol-4-yl)quinazolin-4-yl)benzo[d]thiazol-6-amine], the concentration for half-maximal inhibition (IC50) (at EGFR (d746-750); on EGFR L858R; in experiment [1]) was ≤ 10 nM in each case.
Turning to `C[C@@H]1CN(C)CCN1c1cc(O[C@H](C)C2COC2)c2c(Nc3ccc4ncsc4c3F)ncnc2c1` (single isomer, unassigned) [Example 106, N-(7-((R)-2,4-dimethylpiperazin-1-yl)-5-((R)-1-(oxetan-3-yl)ethoxy)quinazolin-4-yl)-7-fluorobenzo[d]thiazol-6-amine or N-(7-((R)-2,4-dimethylpiperazin-1-yl)-5-((S)-1-(oxetan-3-yl)ethoxy)quinazolin-4-yl)-7-fluorobenzo[d]thiazol-6-amine], the values for the half-inhibitory concentration (IC50) (on EGFR (d746-750); at EGFR L858R; in experiment [1]) were ≤ 10 nM, ≤ 10 nM and 10.1 to 50 nM, respectively.
`Cn1cc(-c2cc(O[C@@H]3CNC[C@H](F)C3)c3c(Nc4ccc5ncsc5c4)ncnc3c2)cn1` (single isomer, unassigned) [Example 334]: the concentration for half-maximal inhibition (IC50) (usually the concentration that inhibits the measured activity by half) was ≤ 10 nM on EGFR (d746-750), ≤ 10 nM on EGFR L858R and 10.1 to 50 nM in experiment [1].
Turning to `COCCN1CCN(c2cc(O[C@H](C)COC)c3c(Nc4ccc5ncsc5c4)ncnc3c2)CC1` [Example 201, (R)-N-(7-(4-(2-methoxyethyl)piperazin-1-yl)-5-((1-methoxypropan-2-yl)oxy)quinazolin-4-yl)benzo[d]thiazol-6-amine], the half-maximal inhibitory concentration (IC50) was ≤ 10 nM on EGFR (d746-750), ≤ 10 nM on EGFR L858R and 10.1 to 50 nM in experiment [1].
With `CN1C[C@H](Oc2cc(-c3cnn(C)c3)cc3ncnc(Nc4ccc5ncsc5c4)c23)[C@@H](F)C1` [Example 383, N-(5-(((3S,4S)-4-fluoro-1-methylpyrrolidin-3-yl)oxy)-7-(1-methyl-1H-pyrazol-4-yl)quinazolin-4-yl)benzo[d]thiazol-6-amine], the figures for the half-inhibitory concentration (IC50) (at EGFR (d746-750); at EGFR L858R; in experiment [1]) were ≤ 10 nM, ≤ 10 nM and 10.1 to 50 nM, respectively.
As to `C[C@@H](Oc1cc(N2CCN(C)CC2)cc2ncnc(Nc3ccc4ncsc4c3F)c12)[C@@H]1CCCO1` [Example 114, 7-fluoro-N-(7-(4-methylpiperazin-1-yl)-5-((R)-1-((S)-tetrahydrofuran-2-yl)ethoxy)quinazolin-4-yl)benzo[d]thiazol-6-amine], the half-inhibitory concentration (IC50) on EGFR (d746-750) is ≤ 10 nM; at EGFR L858R, ≤ 10 nM; in experiment [1] it was 10.1 to 50 nM.
With `Cn1cc(-c2cc(OC[C@]34COC[C@H]3C4)c3c(Nc4ccc5ncsc5c4)ncnc3c2)cn1` (single isomer, unassigned) [Example 148], the half-maximal inhibitory concentration (IC50) on EGFR (d746-750) is ≤ 10 nM; on EGFR L858R, ≤ 10 nM; in experiment [1], 10.1 to 50 nM.
In the case of `COc1nn(C)cc1-c1cc(O[C@H]2CCNC[C@H]2F)c2c(Nc3ccc4ncsc4c3)ncnc2c1` [Example 365, N-(5-(((3R,4S)-3-fluoropiperidin-4-yl)oxy)-7-(3-methoxy-1-methyl-1H-pyrazol-4-yl)quinazolin-4-yl)benzo[d]thiazol-6-amine], the IC50 (at EGFR (d746-750); at EGFR L858R; in experiment [1]) was ≤ 10 nM each time.
Consider `COc1nn(C)cc1-c1cc(O[C@H]2CN(C)C[C@H]2F)c2c(Nc3ccc4ncsc4c3)ncnc2c1` (single isomer, unassigned) [Example 373], for which the IC50 (at EGFR (d746-750); on EGFR L858R; in experiment [1]) was ≤ 10 nM throughout.
On to `C[C@@H](Oc1cc(-c2cnn(C)c2)cc2ncnc(Nc3ccc4ncsc4c3)c12)C1COC1` [Example 133, (R)—N-(7-(1-methyl-1H-pyrazol-4-yl)-5-(1-(oxetan-3-yl)ethoxy)quinazolin-4-yl)benzo[d]thiazol-6-amine], for which the IC50 (on EGFR (d746-750); on EGFR L858R; in experiment [1]) was ≤ 10 nM each time.
Regarding `Cn1cc(-c2cc(O[C@@H]3CCNC[C@H]3F)c3c(Nc4ccc5ncsc5c4F)ncnc3c2)cn1` [Example 348, 7-fluoro-N-(5-(((3R,4R)-3-fluoropiperidin-4-yl)oxy)-7-(1-methyl-1H-pyrazol-4-yl)quinazolin-4-yl)benzo[d]thiazol-6-amine], the IC50 (at EGFR (d746-750); on EGFR L858R; in experiment [1]) was ≤ 10 nM throughout.
Turning to `COC[C@H](C)Oc1cc(-c2cnn(C)c2)cc2ncnc(Nc3ccc4ncsc4c3F)c12` [Example 139, (S)-7-fluoro-N-(5-((1-methoxypropan-2-yl)oxy)-7-(1-methyl-1H-pyrazol-4-yl)quinazolin-4-yl)benzo[d]thiazol-6-amine], the IC50 (at EGFR (d746-750); on EGFR L858R; in experiment [1]) was ≤ 10 nM each time.
As for `Cn1cc(-c2cc(O[C@H]3CNC[C@H](F)C3)c3c(Nc4ccc5ncsc5c4)ncnc3c2)cn1` (racemic) [Example 331, trans-N-(5-(((3R,5R)-5-fluoropiperidin-3-yl)oxy)-7-(1-methyl-1H-pyrazol-4-yl)quinazolin-4-yl)benzo[d]thiazol-6-amine and N-(5-(((3S,5S)-5-fluoropiperidin-3-yl)oxy)-7-(1-methyl-1H-pyrazol-4-yl)quinazolin-4-yl)benzo[d]thiazol-6-amine], the IC50 (at EGFR (d746-750); on EGFR L858R; in experiment [1]) was ≤ 10 nM each time.
On to `Cn1cc(-c2cc(O[C@@H]3CC[C@H]3O)c3c(Nc4ccc5ncsc5c4)ncnc3c2)cn1` (single isomer, unassigned) [Example A54], for which the IC50 is ≤ 10 nM on EGFR (d746-750), ≤ 10 nM on EGFR L858R and 10.1 to 50 nM in experiment [1].
For `COc1nn(C)cc1-c1cc(O[C@@H]2CCN(C)C[C@@H]2F)c2c(Nc3ccc4ncsc4c3)ncnc2c1` [Example 362, N-(5-(((3S,4R)-3-fluoro-1-methylpiperidin-4-yl)oxy)-7-(3-methoxy-1-methyl-1H-pyrazol-4-yl)quinazolin-4-yl)benzo[d]thiazol-6-amine], the IC50 (on EGFR (d746-750); at EGFR L858R; in experiment [1]) was ≤ 10 nM each time.
With `COc1nn(C)cc1-c1cc(O[C@@H]2CCN(C)C[C@H]2F)c2c(Nc3ccc4ncsc4c3)ncnc2c1` (single isomer, unassigned) [Example 358], the IC50 (on EGFR (d746-750); at EGFR L858R; in experiment [1]) was ≤ 10 nM each time.
For `CN1CC[C@@H]2CN(C(=O)Nc3cc4c(Nc5ccc6ncsc6c5)ncnc4cc3-c3ccn(C)n3)C[C@@H]21` [Example 252, (3aR,6aR)-N-(4-(benzo[d]thiazol-6-ylamino)-7-(1-methyl-1H-pyrazol-3-yl)quinazolin-6-yl)-1-methylhexahydropyrrolo[3,4-b]pyrrole-5(1H)-carboxamide], the half-maximal inhibitory concentration (IC50) (on EGFR (d746-750); on EGFR L858R; in experiment [1]) was ≤ 10 nM each time.
Regarding `CN(C)CC1(COc2cc(-c3cnn(C)c3)cc3ncnc(Nc4ccc5ncsc5c4)c23)COC1` [Example 188, N-(5-((3-((dimethylamino)methyl)oxetan-3-yl)methoxy)-7-(1-methyl-1H-pyrazol-4-yl)quinazolin-4-yl)benzo[d]thiazol-6-amine], the IC50 on EGFR (d746-750) was ≤ 10 nM; on EGFR L858R, 10.1 to 50 nM; in experiment [1] it was 10.1 to 50 nM.
Turning to `Cn1cc(-c2cc(OCC(=O)N3CCCCC3)c3c(Nc4ccc5ncsc5c4)ncnc3c2)cn1` [Example 272, 2-((4-(benzo[d]thiazol-6-ylamino)-7-(1-methyl-1H-pyrazol-4-yl)quinazolin-5-yl)oxy)-1-(piperidin-1-yl)ethan-1-one], the 50% inhibitory concentration (IC50) (on EGFR (d746-750); on EGFR L858R; in experiment [1]) was ≤ 10 nM in each case.
`Cn1cc(-c2cc(OC3COCOC3)c3c(Nc4ccc5ncsc5c4)ncnc3c2)cn1` [Example A59, N-(5-((1,3-dioxan-5-yl)oxy)-7-(1-methyl-1H-pyrazol-4-yl)quinazolin-4-yl)benzo[d]thiazol-6-amine]: the figures for the half-maximal inhibitory concentration (IC50) (at EGFR (d746-750); at EGFR L858R; in experiment [1]) were ≤ 10 nM, ≤ 10 nM and 10.1 to 50 nM, respectively.
Turning to `CN1CC[C@H](Oc2cc(-c3cn(C)nc3OC(F)F)cc3ncnc(Nc4ccc5ncsc5c4)c23)[C@H](F)C1` [Example 367, N-(7-(3-(difluoromethoxy)-1-methyl-1H-pyrazol-4-yl)-5-(((3R,4S)-3-fluoro-1-methylpiperidin-4-yl)oxy)quinazolin-4-yl)benzo[d]thiazol-6-amine], the figures for the 50% inhibitory concentration (IC50) (on EGFR (d746-750); on EGFR L858R; in experiment [1]) were ≤ 10 nM, 10.1 to 50 nM and 10.1 to 50 nM, respectively.
For `CC(C)N1CC[C@@H](Oc2cc(-c3cnn(C)c3)cc3ncnc(Nc4ccc5ncsc5c4)c23)C1=O` (single isomer, unassigned) [Example 64], the IC50 on EGFR (d746-750) was ≤ 10 nM; on EGFR L858R, ≤ 10 nM; in experiment [1], 10.1 to 50 nM.
For the molecule `COc1cc(O[C@H](C)C2COC2)c2c(Nc3ccc4ncsc4c3F)ncnc2c1` (single isomer, unassigned) [Example 82], the half-maximal inhibitory concentration (IC50) is ≤ 10 nM at EGFR (d746-750), ≤ 10 nM on EGFR L858R and 10.1 to 50 nM in experiment [1].
